Values joined by “and” are separate entries in the source; they are usually repeats but may differ in a detail not shown here. Equal values may be shown once.
Experiments:
[1] = biological target: T1, leukotriene receptor (guinea pig lung membranes) (Cavia porcellus, UniProt Q2NNR5); experiment: Binding of ^3 H-Leukotriene D4 to Guinea Pig Lung Membranes (RBL); settings: 0.2 nM ^3 H-LTD4, 60 min, 25° C.; read-out: Concentration (M) for 50.0 % Inhibition, IC (RBL)
T1 construct: 20 mg original tissue wet weight of guinea pig lung; tissue Kuiper Rabbit Farm, Gary, IN (animals); host or cells: guinea pig lung, crude membranes
T1 sequence (Q2NNR5 1-340): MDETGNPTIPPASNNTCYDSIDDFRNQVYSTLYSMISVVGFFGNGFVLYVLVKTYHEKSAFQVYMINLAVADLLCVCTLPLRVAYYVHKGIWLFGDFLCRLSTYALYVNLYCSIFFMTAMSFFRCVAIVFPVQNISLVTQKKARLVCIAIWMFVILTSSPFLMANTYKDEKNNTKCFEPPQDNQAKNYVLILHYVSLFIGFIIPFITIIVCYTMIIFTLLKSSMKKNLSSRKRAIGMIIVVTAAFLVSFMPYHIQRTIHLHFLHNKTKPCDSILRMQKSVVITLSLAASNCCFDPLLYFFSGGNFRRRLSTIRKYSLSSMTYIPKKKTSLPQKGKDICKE
Experimental: Additionally, the activity, of the compounds having the Formula I of the present invention is determined by the well known leukotriene receptor binding assay that is described by R. F. Bruns, W. J. Thomsen and T. A. Pugsley in Life Sciences, 33, 645 (1983) or the Herxheimer in vivo antiallergy test described in H. Herxheimer, J. Physiol. (London), Vol. 177, p. 251 (1952).
Binding of ^3 H-Leukotriene D4 to Guinea Pig Lung Membranes (RBL)
[14,15-^3 H]leukotriene D4 (^3 H-LTD4) (25 Ci/mmol and 40 Ci/mmol) is purchased from New England Nuclear. Unlabeled LTC4 is a gift of Ono Pharmaceuticals (Japan). LTC4, LTD4, and LTE4 are purchased as methyl esters from Paesel GmbH (Frankfurt, W. Germany). Concentrations of the Paesel leukotrienes are calculated from their absorbance at 280 nm. Leukotriene esters are saponified overnight under N2 in 3.3% potassium carbonate at room temperature. Tritiated leukotrienes are stored as received from New England Nuclear at -20° C. Ono LTC4 (5 μg/ml) is stored at -60° C. in phosphate buffer pH 6.8. Saponified Paesel leukotrienes are stored at -60° C. in 3.3% potassium carbonate (pH 9.0-9.5). Aliquots of leukotrienes are taken from stock solutions immediately after thawing, after which the stock solutions are immediately refrozen. 2-Amino-2-(hydroxymethyl)-1,3-propanediol (Tris) is Sigma pH 7.7 pre-set crystals, and dimethylsulfoxide is Aldrich Gold Label.
Preparation of crude lung membranes
Two pairs of lungs (1.3 g) from freshly sacrificed 300 g male guinea pigs (older animals gave substantially lower binding) from Kuiper Rabbit Farm, Gary, IN are disrupted with a Polytron PT 10 (setting 4) for 30 seconds in 20 ml ice-cold 50 mM Tris adjusted with HCl to pH 7.7 at 25° C. (Tris buffer), filtered through a single layer of gauze to remove connective tissue, and centrifuged at 50,000 xg for ten min. The pellet is resuspended by homogenization with a Polytron in 20 ml Tris buffer, centrifuged at 50,000 xg for ten min., resuspended, incubated at 37° C. for 30 minutes, and centrifuged again. The final pellet is resuspended in Tris buffer and either used fresh or stored at -70° C.
All incubations are in triplicate for 60 minutes at 25° C. in 12×75 mm polystyrene tubes containing 1 ml Tris buffer with 20 mg original tissue wet weight of guinea pig lung nmembranes, 0.2 nM ^3 H-LTD4 (6,000-11,000 cpm), 10 mM MgCl2, and 1% dimethylsulfoxide Leukotrienes are diluted in Tris buffer. All other test compounds dissolved at 10 mM in dimethylsulfoxide on the same day as the experiment, and diluted in dimethylsulfoxide to 100× the final incubation concentration. Control incubations receive an equal volume (10 μl) of dimethylsulfoxide; the resulting concentration of dimethylsulfoxide had no effect on binding. ^3 H-LTD4 is diluted to 2 nM in Tris buffer. The membrane suspension (20 mg/0.89 ml) contains sufficient MgCl2 to give 10 mM final concentration in the incubation. […] All additions are performed at 0° C. Immediately after the last addition, the incubation is initiated by agitating the rack of tubes on a vortex mixer and warming to 25° C. in a water bath. Tubes are vortexed at least once more during the incubation to ensure that the membranes remained suspended. Incubations are terminated after 60 minutes by filtering under reduced pressure through 25 mm Whatman GF/B filters followed by rapid washing three times with 4 ml of ice-cold Tris buffer. Filters are added to scintillation vials with 8 ml Formula 947 (New England Nuclear), left overnight, shaken, and the radioactivity counted in a scintillation counter (efficiency 40%). Nonspecific binding, defined as binding of ^3 H-LTD4 in the presence of 100 nM LTC4, is 300-500 cpm for all lots of ^3 H-LTD4. Binding to the filters in the absence of tissue is about 100 cpm, and is not affected by unlabeled LTC4. Specific binding, defined as total binding minus nonspecific binding, varied considerably from lot to lot of ^3 H-LTD4. […]

[2] = biological target: Human Leukocyte Lipoxygenase; experiment: Human Leukocyte Lipoxygenase Assay (LDA-H); format: biochemical; settings: for IC50: acetone-pentane powder enzyme, 234 nm, 24° C., 5 min preincubation, read-out: Concentration (M) for 50.0 % Inhibition, IC (LDAH)
Experimental: Human Leukocyte Lipoxygenase Assay (LDA-H)
Whole blood is collected from normal volunteers and spun in a refrigerated centrifuge for four minutes at 1°-6° C. at 3800 g. The buffy coat is manually separated and washed twice with chilled 0.83% NH4 Cl and centrifuged at 1000 RPM for ten minutes at 4° C. The white cell is suspended in culture media-EMEM supplemented with 6% Agamma human serum, tricine buffer, and neomycin and recentrifuged at 1000 g to yield a pellet containing the leukocytes used for the preparation of the acetone pentane powder.
The acetone-pentane powder is prepared utilizing a modification of the procedure reported for human platelet lipoxygenase. See Siegel, et al, Arachidonate Metabolism via Lipoxygenase and 12-L-hydroperoxy-5 Eicosatetraenoic Acid Peroxidase Sensitive to Antiinflammatory Drugs, Proc. Natl. Acad. Sci., USA 77: 308, 1980 and D. P. Wallach and V. R. Brown, A Novel Preparation of Human Platlet Lipoxygenase, Biochem. Biophys. Acta. 663: 361, 1981. Buffy coat prepared above is resuspended in 5-7 volumes of cold 0.1M Tris buffer, pH 7.4 containing 0.154M NaCl. The suspension is centrifuged at 13,300 g for ten minutes at 4° C. The resultant pellet is retained, resuspended in five volumes of cold acetone, recentrifuged at 13,300 g and resuspended in five volumes of cold pentane. The pentane suspension is centrifuged for ten minutes at 13,300 g to give a pellet which is dried in the cold under vacuum with periodic pulverization. The dry powder is stable for several weeks when stored at -80° C.
Enzyme stock solution is prepared in the following manner. About 15 mg of the acetone-pentane powder is suspended in 4 ml of cold tris buffer (0.1M, pH 7.4), allowed to stand for five minutes, and homogenized thoroughly. The homogenate is sonicated three times for 15 seconds each time, diluted to 7 ml with cold tris buffer (0.1M, pH 7.4), and centrifuged at 4° C. for 60 minutes at 13,300 g. the supernatent is retained and diluted to a total of 10 ml with cold tris buffer (0.1M, pH 7.4) to give the stock enzyme solution. Additional dilutions of 2-50 fold are done as necessary to locate optimal enzyme reaction rate in the assay described below.
Substrate solution is prepared at 100 μM or 1.0 μM concentrations of arachidonic acid or linoleic acid in 0.1M tris buffer, pH 9.0 containing 20% ethanol.
The enzyme reaction is followed spectrophotometrically by the appearance of a conjugated diene product at 234 nm. The reaction is monitored at 24° C. using a Gilford Model 2600 spectrophotometer. […] The effects of inhibitors on the reaction are compared with control reactions run under indentical conditions. Routinely, each compounds of the present invention is incubated with the enzyme for five minutes prior to addition of substrate to initiate the reaction. Inhibition expressed as IC50 as molar concentration of the compound required to reduce reaction rate to 50% control.

In the case of `CC(=O)Nc1ccc(CCc2ccc(NC(=O)C3CS(=O)(=O)c4ccccc4C3=O)cc2)cc1` (centres unmarked) [Example 49], the IC50 [1] is reported as 0.000149 M and the IC50 [2] is reported as 3.5e-05 M.
`CCCCCCCCc1ccc(NC(=O)C2CS(=O)(=O)c3ccccc3C2=O)cc1` (centres unmarked) [Example 59, 3,4-Dihydro-N-(4-octylphenyl)-4-oxo-2H-1-benzothiopyran-3-carboxamide, 1,1-dioxide] was tested, and the IC50 [1] was 7.29e-06 M and the “% Inhibition (LDAH)” value ([2]; Concentration 2.50 E -5 M) was 0.0%.
With `O=C(Nc1ccc(CCc2ccc(O)c(O)c2)cc1)C(=O)c1sc2ccc(Cl)cc2c1O` [Example 138, Benzo[b]thiophene-2-acetamide, 5-chloro-N-[4-[2-(3,4-dihydroxyphenyl)ethyl]phenyl]-3-hydroxy-α-oxo] the IC50 [1] was 0.000113 M and the IC50 [2] was 3.3e-05 M.
`O=C(Nc1ccc(CCc2ccccc2O)cc1)C1=C(O)c2ccccc2S(=O)(=O)C1` [Example 38] was tested, and the IC50 [1] was 6.68e-06 M and the “% Inhibition (LDAH)” value ([2]; Concentration 2.50 E -5 M) was 0.0%.
`O=C(Nc1ccc(CCc2ccc(Cl)cc2Cl)cc1)C1=C(O)c2ccccc2S(=O)(=O)C1` [Example 72, 2H-1-Benzothiopyran-3-carboxamide, N-[4-[2-(2,4-dichlorophenyl)ethyl]phenyl]-4-hydroxy-1,1-dioxide] showed an IC50 [1] of 3.5e-06 M and an IC50 [2] of 2.6e-06 M.
For `COc1ccccc1CCc1ccc(NC(=O)C2=C(O)c3ccccc3S(=O)(=O)C2)cc1` [Example 37, 4-Hydroxy-N-8 4-[2-(2-methoxyphenyl)ethyl]phenyl-2H-1-benzothiopyran-3-carboxamide, 1,1-dioxide], the IC50 [1] was 1.9e-05 M and the “% Inhibition (LDAH)” value ([2]; Concentration 8.00 E -5 M) was 0.0%.
With `O=C(Nc1ccc(CCc2cccc(O)c2)cc1)C1CS(=O)(=O)c2ccccc2C1=O` (centres unmarked) [Example 82] the IC50 [1] was 3.95e-05 M and the “% Inhibition (LDAH)” value ([2]; Concentration 8.00 E -5 M) was 0.0%.
`O=C(Nc1ccc(CCc2ccc(O)c(O)c2)cc1)C(=O)c1sc2ccccc2c1O` [Example 134, N-[4-[2-(3,4-Dihydroxyphenyl)ethyl]phenyl]-3-hydroxy-α-oxo-benzo[b]thiophene-2-acetamide] showed an IC50 [1] of 6.88e-05 M and an IC50 [2] of 8.2e-06 M.
`Cc1ccccc1CCc1ccc(NC(=O)C2=C(O)c3ccccc3S(=O)(=O)C2)cc1` [Example 43] was tested, and the IC50 [1] was 2.06e-05 M and the “% Inhibition (LDAH)” value ([2]; Concentration 8.00 E -5 M) was 0.0%.
`CCCCCCc1ccc(NC(=O)C2CS(=O)(=O)c3ccccc3C2=O)cc1` (centres unmarked) [Example 58, N-(4-Hexylphenyl)-3,4-dihydro-4-oxo-2H-1-benzothiopyran-3-carboxamide, 1-1-dioxide] was tested, and the IC50 [1] was 8.47e-06 M and the “% Inhibition (LDAH)” value ([2]; Concentration 8.00 E -5 M) was 0.0%.
With `Cc1ccc(CCc2ccc(NC(=O)C3CS(=O)(=O)c4ccccc4C3=O)cc2)cc1` (centres unmarked) [Example 45] the IC50 [1] was 9.44e-06 M and the “% Inhibition (LDAH)” value ([2]; Concentration 8.00 E -5 M) was 0.0%.
For `O=C(Nc1ccc(CCc2ccc(Cl)c(Cl)c2)cc1)C1CS(=O)(=O)c2ccccc2C1=O` (centres unmarked) [Example 11, N-[4-[2-(3,4-Dichlorophenyl)ethyl]phenyl]-3,4-dihydro-4-oxo-2H-1-benzothiopyran-3-carboxamide, 1,1-dioxide], the IC50 [1] was 3.64e-06 M and the IC50 [2] was 1.1e-06 M.
In the case of `CCCCCCCCCCCCc1ccc(NC(=O)C2CS(=O)(=O)c3ccccc3C2=O)cc1` (centres unmarked) [Example 61, N-(4-Dodecylphenyl)-3,4-dihydro-4-oxo-2H-1-benzothiopyran-3-carboxamide, 1,1-dioxide], the IC50 [1] is reported as 2e-05 M and 2.05e-05 M and the IC50 [2] is reported as 1e-06 M.
With `CCOC(=O)c1ccc(CCc2ccc(NC(=O)C3CS(=O)(=O)c4ccccc4C3=O)cc2)cc1` (centres unmarked) [Example 47, 4-[2-[4-[[(3,4-Dihydro-4-oxo-2H-1-benzothiopyran-3-yl)carbonyl]amino]pheyl]ethyl]benzoic acid, ethyl ester, 1,1-dioxide] the IC50 [1] was 1.11e-05 M and the “% Inhibition (LDAH)” value ([2]; Concentration 8.00 E -5 M) was 0.0%.
For `COc1cccc(CCc2ccc(NC(=O)C3CS(=O)(=O)c4ccccc4C3=O)cc2)c1` (centres unmarked) [Example 39], the IC50 [1] was 2.48e-05 M and the IC50 [2] was 5.7e-05 M.
With `O=C(Nc1ccc(CCc2ccc(C(F)(F)F)cc2)cc1)C1CS(=O)(=O)c2ccccc2C1=O` (centres unmarked) [Example 44] the IC50 [1] was 3.02e-06 M and the “% Inhibition (LDAH)” value ([2]; Concentration 2.50 E -5 M) was 0.0%.
For `O=C(Nc1ccc(CCc2ccc(O)cc2)cc1)C1CS(=O)(=O)c2ccccc2C1=O` (centres unmarked) [Example 40], the IC50 [1] was 5.6e-05 M and the IC50 [2] was 8.2e-05 M.
Work on `O=C(Nc1ccc(CCc2cc(O)cc(O)c2)cc1)C1=C(O)c2ccccc2S(=O)(=O)C1` [Example 33, N-[4-[2-(3,5-Dihydroxyphenyl)ethyl]phenyl]-4-hydroxy-2H-1-benzothiopyran-3-carboxamide, 1,1-dioxide] yielded an IC50 [1] of 8.2e-05 M and an IC50 [2] of 2.5e-05 M.
For `O=C(Nc1ccc(CCc2cc(Cl)cc(Cl)c2)cc1)C1=C(O)c2ccccc2S(=O)(=O)C1` [Example 71, 2H-1-Benzothiopyran-3-carboxamide, N-[4-[2-(3,5-dichlorophenyl)ethyl]phenyl]-4-hydroxy-, 1,1-dioxide], the IC50 [1] was 7.46e-06 M and the IC50 [2] was 0.0002 M.

From patent US4868195A, “Novel enolamides, pharmaceutical compositions and methods of use thereof for activity as modulators of the arachidonic acid cascade” (Warner-Lambert Company, priority 1988, dated 1989)
